Assay results taken from EP0080271A1, “Indomethacin phenyl ester derivatives, their use, and compositions containing them” (priority 1981, dated 1983).
Like-named read-outs stand apart in the source and are kept apart here.

Tests used:
rats [1] = assay: intestinal ulcers and survival after oral administration for 5 days; assay type: in vivo; conditions: group of 12 rats, oral for 5 days, daily dose 28 µM; for ulceration (%): percentage of surviving animals with ulcers
Description: Each compound listed in Table 5 was administered orally to a group of 12 rats for 5 days, and the number of intestinal ulcers was determined. The degree of ulceration was calculated as a percentage of number of […] surviving animals with respect to the number of surviving animals.

rats [2] = assay: ulceration activity: ulcer index 5 hours after oral administration; assay type: in vivo; conditions: sacrificed 5 hours after administration
Description: (§1) Secondly, in order to assess ulceration activity, various compounds (listed in Table 2) were administered orally to a group of rats. The animals were sacrificed 5 hours after administration, and the ulcer index was determined. Compounds were also administered orally to a group of rats for 1 week, and the number of intestinal ulcers was determined. The same compounds were administered orally to a group of rats, the ulcer index being determined by observing the stomach 3 hours after administration.

[3] = system: edema induced by carrageenin in rat; assay: inhibition of edema induced by carrageenin in rat (hind paw volume); assay type: in vivo; conditions: oral 1 hour before carrageenin injection; for inhibition (%): 3 hours after injection; for edema (%): hind paw volume 3 hours after injection
Description: Firstly, in order to assess anti-inflammatory activity, the inhibition of edema induced by carrageenin in rat was studied. Various compounds (listed in Table 1) were administered orally to a group of rats just 1 hour before a carrageenin injection, and the hind paw volume was measured 3 hours after injection.

[4] = LD50 by oral administration in mice; conditions: mouse, in vivo, mice of the stock ddy
Description: LD50 of this compound, determined by means of oral administration in mice of the stock ddy, was 200 mg/kg.

rats [5] = assay: number of intestinal ulcers after oral administration for 1 week; assay type: in vivo; conditions: oral for 1 week, dose 15 µM
Description: as §1

rats [6] = assay: ulcer index, stomach observed 3 hours after oral administration; assay type: in vivo; conditions: stomach 3 hours after administration, dose 0.056 mM
Description: as §1

rats [7] = assay type: in vivo; conditions: group of 10 rats, oral, stomach 24 hours after administration, dose 0.060 mM
Description: Each compound listed in Table 6 was administered orally to a group of 10 rats and the ulcer index was determined by observing the stomach 24 hours after administration.

serum esterase = conditions: reported in Ceskoslovenska Farmacie 26 (1977) 6277; cited from earlier work
[8] = versus indomethacin plus salicyl salicylate

SMILES	number of intestinal ulcers (rats [1])	ulceration (%) (rats [1])	ulcer index (mm) (rats [2]; dose 0.030 mM)	inhibition (%) ([3]; dose 0.015 mM)	inhibition (%) ([3]; dose 0.030 mM)	edema (%) ([3]; dose 0.015 mM)	edema (%) ([3]; dose 0.030 mM)	further results
COc1ccc2c(c1)c(CC(=O)OCC(=O)O)c(C)n2C(=O)c1ccc(Cl)cc1 [Acemethacin, reference compound]	11.0	100						
COc1ccc2c(c1)c(CC(=O)Oc1ccccc1C(=O)OCc1ccccc1)c(C)n2C(=O)c1ccc(Cl)cc1 [Example 1, 2-Benzyloxycarbonylphenyll-(p-chlorobenzoyl)-5-methoxy-2-methylindole-3-acetate]			0.1 ± 0.1					
CCOC(=O)c1ccccc1OC(=O)Cc1c(C)n(C(=O)c2ccc(Cl)cc2)c2ccc(OC)cc12 [Example 2, 2-Ethoxycarbonylphenyl 1-(p-chlorobenzoyl)-5-methoxy-2-methylindole-3-acetate]			0.2 ± 0.1	31.8	34.7	53.3 ± 8.7	52.9 ± 3.6	LD50 [4]: 200 mg/kg
COc1ccc2c(c1)c(CC(=O)Oc1ccccc1C(=O)OC(C)(C)C)c(C)n2C(=O)c1ccc(Cl)cc1 [Example 3, 2-t-Butoxycarbonylphenyl 1-(p-chlorobenzoyl)-5-methoxy-2-methlindole-3-acetate]			0.2 ± 0.1	35.8	34.7	52.0 ± 7.5	52.9 ± 3.6	
COc1ccc2c(c1)c(CC(=O)Oc1ccccc1C(=O)Oc1ccccc1C(=O)OCc1ccccc1)c(C)n2C(=O)c1ccc(Cl)cc1 [Example 4, 2-(2-Benzyloxycarbonylphenyl)oxycarbonylphenyl 1-(p-chlorobenzoyl)-5-methoxy-2-methylindole-3-acetate]			0.4 ± 0.3					
COc1ccc2c(c1)c(CC(=O)Oc1ccccc1C(=O)Oc1ccccc1C(=O)O)c(C)n2C(=O)c1ccc(Cl)cc1 [Example 5, 2-(2-Hydroxycarbonylphenyl)oxycarbonylphenyll-(p-chlorobenzoyl)-5-methoxy-2-methylindole-3-acetate]	2.4 ± 0.6	75	0.6 ± 0.3	42.7	48.7	46.4 ± 4.8	41.4 ± 5.3	number of ulcers (rats [5]): 0.5 ± 2.0; inhibition (%) (rats [5]; [8]): 98.4%; Ulcer index (rats [6]): 3.7 ± 1.3; inhibition (%) (rats [6]; [8]): 86.0%
COc1ccc2c(c1)c(CC(=O)Oc1ccccc1C(=O)O)c(C)n2C(=O)c1ccc(Cl)cc1 [Indomethacin salicylic ester, 2-hydroxycarbonylphenyll-(p-chlorobenzoyl)-5-methoxy-2-methylindole-3-acetate]	5.0 ± 0.4	100		49.4		41.0 ± 3.5		ulcer index (mm) (rats [7]): 7.1 ± 1.6 mm; inhibition (%) (rats [7]; versus indomethacin): 73.2%; hydrolysis by serum esterase (serum esterase): hydrolysis by serum esterase
COc1ccc2c(c1)c(CC(=O)O)c(C)n2C(=O)c1ccc(Cl)cc1 [Indomethacin]			5.9 ± 2.5	32.2	53.5	54.9 ± 6.5	37.7 ± 7.2	ulcer index (mm) (rats [2]; dose 21.5 mg/kg (0.060 mM)): 57.9 ± 6.6 mm; number of survival animals (rats [1]): 0; ulcer index (mm) (rats [7]): 26.5 ± 6.2 mm
